Experimental findings from publication PMC8315116 (Biochemistry, 2021) are described below.

Experiment [1] addresses T1, human MAT2A (Homo sapiens, UniProt P31153). The experiment in a line: Thermal melt of MAT2A with Sypro Orange and ligands. As to conditions: 10 mM MgCl2.
The target of experiment [2] is T1, human MAT2A. As to conditions: varied substrate; fits to data of Fig. 2.
The target in experiment [3] is T1, human MAT2A. The experiment in a line: Inhibition of MAT2A by ATP and triphosphate analogues. It is filed as biochemical.
Experiment [4] addresses T1, human MAT2A. Nature of the experiment: Triphosphate hydrolysis by MAT2A. In kind it is biochemical. The conditions noted are these: for Km: read-out: Km of triphosphate hydrolysis.
For experiment [5], the target named is T1, human MAT2A. Nature of the experiment: Inhibition of MAT2A by PNP or PPNP. As to conditions: non-competitive.
Experiment [6] has as its target T1, human MAT2A. The experiment in a line: ATP analogues as alternative substrates of MAT2A. In kind it is biochemical. As to conditions: Figure 5C.
The target of experiment [7] is T1, human MAT2A. The experiment in a line: HPLC assay of ATPase activity of MAT2A. In kind it is biochemical. As to conditions: 80 μM AdoMet or 10 μM ammonium vanadate.
Experiment [8] addresses T1, human MAT2A. Nature of the experiment: Product inhibition of MAT2A by AdoMet. The conditions noted are these: non-competitive. It is filed as biochemical.
The mark [9] stands for this setting: 1 mM methionine and 200 μM ATP, NO = no significant inhibition observed.

Values joined by “and” are separate entries in the source; they are usually repeats but may differ in a detail not shown here. Equal entries are not always repeated. Where two headings read alike, the source gives them in different places. Where only a bound is given, the exact number is not on record here.

T1 sequence (P31153 whole entry): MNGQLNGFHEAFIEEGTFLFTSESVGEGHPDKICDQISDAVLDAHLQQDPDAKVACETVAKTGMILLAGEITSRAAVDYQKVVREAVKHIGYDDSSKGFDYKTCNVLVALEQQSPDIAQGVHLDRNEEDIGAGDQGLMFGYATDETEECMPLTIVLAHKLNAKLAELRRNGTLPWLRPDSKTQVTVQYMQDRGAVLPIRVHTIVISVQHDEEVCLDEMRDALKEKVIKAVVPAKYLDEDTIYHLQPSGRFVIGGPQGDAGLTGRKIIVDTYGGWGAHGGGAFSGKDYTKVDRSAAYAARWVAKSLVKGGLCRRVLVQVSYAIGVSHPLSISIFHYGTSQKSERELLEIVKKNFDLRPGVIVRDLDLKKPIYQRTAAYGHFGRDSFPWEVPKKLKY

For the compound `O=P(O)(O)OP(=O)(O)O` [pyrophosphate], in experiment [1], the “thermal stabilization of MAT2A, in words” value is listed as “large shifts in the Tm”.

A word on the kcat: it is the number of substrate molecules converted per active site and unit of time at saturation. For the compound `CSCC[C@H](N)C(=O)O` [Methionine], the turnover number (kcat) in experiment [2] was 0.27 ± 0.01 s⁻¹. In addition, the “shift of thermal melt temperature (Tm) compared to MAT2A alone” value in experiment [1] was 1-3 °C.

For orientation: Ki means a dissociation constant, usually derived from enzyme kinetics or from competition with a known ligand. As to `O=P(O)(O)NP(=O)(O)NP(=O)(O)O` [PNPNP, (α–β, β–γ)-diimido triphosphate], the inhibition constant (Ki) amounted to 120 ± 30 nM in experiment [3] (setting [9]) and 115 nM in experiment [3] (read-out: Ki (inhibitor)). In experiment [3] (PNPNP versus PPNP), the “increased affinity compared to PPNP” value is given as around 10 fold. For the same compound, in experiment [1], the “shift of thermal melt temperature (Tm) compared to MAT2A alone” value is above 50 °C.

Broadly, the Km is the concentration of substrate that gives half-maximal velocity. On to `O=P(O)(O)OP(=O)(O)OP(=O)(O)O` [Triphosphate], for which, in experiment [4] (AdoMet at 150 μM), the “rate of triphosphate hydrolysis” value was determined as 0.07 ± 0.01 s⁻¹ and the Km worked out at 6 ± 2 µM. In addition, the “kcat of triphosphate hydrolysis” value in experiment [4] (AdoMet at 1 mM) stood at 0.033 ± 0.003 s⁻¹. Moreover, in experiment [4] (without AdoMet present), the Michaelis constant (Km) is 4 ± 2 µM and the “rate of triphosphate hydrolysis” value was determined as 0.020 ± 0.003 s⁻¹. For the same compound, the inhibitory constant (Ki) in experiment [3] (setting [9]) is 3450 nM and 3400 nM. The “thermal stabilization of MAT2A, in words” value in experiment [1] is given as “large shifts in the Tm”.

For `O=P(O)(O)NP(=O)(O)OP(=O)(O)O` [PPNP, Imidotriphosphate], the inhibitory constant (Ki) in experiment [5] (toward ATP) worked out at 0.86 ± 0.06 µM; in experiment [5] (toward methionine), 0.76 ± 0.07 µM.

In the case of `O=P(O)(O)NP(=O)(O)O` [Imidodiphosphate], the Ki in experiment [5] (Ki, toward ATP) is 14 ± 1 µM; in experiment [5] (Ki, toward methionine), 17 ± 2 µM.

On to `Nc1ncnc2c1ncn2[C@@H]1O[C@H](COP(=O)(O)CP(=O)(O)OP(=O)(O)O)[C@@H](O)[C@H]1O` [AMPCPP], for which the “production of orthophosphate from methionine and ATP analogue” value in experiment [6] is “phosphate formation”.

Consider phosphate, for which the “thermal stabilization of MAT2A, in words” value in experiment [1] is recorded as “did little to increase MAT2A stability”.

As for `C[S+](CC[C@H](N)C(=O)[O-])C[C@H]1O[C@@H](n2cnc3c(N)ncnc32)[C@H](O)[C@@H]1O` (stereo partly drawn) [AdoMet, S-Adenosyl-L-methionine], the “activation of triphosphate hydrolysis” value in experiment [4] (AdoMet at 150 μM versus no AdoMet) is on record as 3.5 fold. Moreover, the “effect on the ATPase reaction of MAT2A” value in experiment [7] is “inhibited”. Moreover, in experiment [1], the “thermal stabilization of MAT2A, in words” value was “did little to increase MAT2A stability”. Further, the inhibition constant Ki in experiment [8] (with respect to ATP) stood at 136 ± 7 µM; in experiment [8] (with respect to methionine), 81 ± 10 µM.
